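Five concentrations, 48 hours, 96-well plates. GI50 = concentration required for 50% inhibition of growth. TGI denotes the concentration required for complete inhibition of growth.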
Key:
Assay in all cases: inhibition of tumour cell growth, NCI panel, 48 h
786-0 renal = test system: 786-0 renal
A498 renal = test system: A498 renal
A549 NSCLC = test system: A549 NSCLC
ACHN renal = test system: ACHN renal
BT-549 breast = test system: BT-549 breast
CAKI-1 renal = test system: CAKI-1 renal
CCRF-CEM leukemia = test system: CCRF-CEM leukemia
COLO 205 colon = test system: COLO 205 colon
DU-145 prostate = test system: DU-145 prostate
EKVX NSCLC = test system: EKVX NSCLC
HCC-2998 colon = test system: HCC-2998 colon
HCT-116 colon = test system: HCT-116 colon
HCT-15 colon = test system: HCT-15 colon
HL-60(TB) leukemia = test system: HL-60(TB) leukemia
HOP-62 NSCLC = test system: HOP-62 NSCLC
HOP-92 NSCLC = test system: HOP-92 NSCLC
HS 578T breast = test system: HS 578T breast
HT29 colon = test system: HT29 colon
IGROV1 ovarian = test system: IGROV1 ovarian
K-562 leukemia = test system: K-562 leukemia
KM12 colon = test system: KM12 colon
LOX IMVI melanoma = test system: LOX IMVI melanoma
M14 melanoma = test system: M14 melanoma
MALME-3M melanoma = test system: MALME-3M melanoma
MCF7 breast = test system: MCF7 breast
MDA-MB-231 breast = test system: MDA-MB-231 breast
MDA-MB-435 = test system: MDA-MB-435
MOLT-4 leukemia = test system: MOLT-4 leukemia
NCI-H226 lung = test system: NCI-H226 lung
NCI-H460 lung = test system: NCI-H460 lung
NCI-H522 lung = test system: NCI-H522 lung
NCI/ADR-RES ovarian = test system: NCI/ADR-RES ovarian
OVCAR-3 ovarian = test system: OVCAR-3 ovarian
OVCAR-4 ovarian = test system: OVCAR-4 ovarian
OVCAR-5 ovarian = test system: OVCAR-5 ovarian
OVCAR-8 ovarian = test system: OVCAR-8 ovarian
PC-3 prostate = test system: PC-3 prostate
RPMI-8226 leukemia = test system: RPMI-8226 leukemia
RXF 393 renal = test system: RXF 393 renal
SF-268 CNS = test system: SF-268 CNS
SF-295 CNS = test system: SF-295 CNS
SF-539 CNS = test system: SF-539 CNS
SK-MEL-2 melanoma = test system: SK-MEL-2 melanoma
SK-MEL-28 melanoma = test system: SK-MEL-28 melanoma
SK-MEL-5 melanoma = test system: SK-MEL-5 melanoma
SK-OV-3 ovarian = test system: SK-OV-3 ovarian
SN12C renal = test system: SN12C renal
SNB-19 CNS = test system: SNB-19 CNS
SNB-75 CNS = test system: SNB-75 CNS
SR leukemia = test system: SR leukemia
SW-620 colon = test system: SW-620 colon
T-47D breast = test system: T-47D breast
TK-10 renal = test system: TK-10 renal
U251 CNS = test system: U251 CNS
UACC-257 melanoma = test system: UACC-257 melanoma
UACC-62 melanoma = test system: UACC-62 melanoma
UO-31 renal = test system: UO-31 renal
NCI-H23 lung = test system: NCI-H23 lung

## O=C(CSc1nc2sc3c(c2c(=O)n1-c1ccc(Cl)cc1)CCCC3)NNC(=O)Nc1cccc(C(F)(F)F)c1
786-0 renal
  GI50: 2.7 µM
  TGI: 9.79 µM
A498 renal
  GI50: 1.96 µM
  TGI: 4.85 µM
A549 NSCLC
  GI50: 2.97 µM
  TGI: 12.3 µM
ACHN renal
  GI50: 3.67 µM
  TGI: 14.9 µM
BT-549 breast
  GI50: 2.02 µM
  TGI: 5.9 µM
CAKI-1 renal
  GI50: 2.31 µM
  TGI: 7.14 µM
CCRF-CEM leukemia
  GI50: 3.53 µM
  TGI: > 100 µM
COLO 205 colon
  GI50: 1.92 µM
  TGI: 3.52 µM
DU-145 prostate
  GI50: 4.12 µM
  TGI: > 100 µM
EKVX NSCLC
  GI50: 2.45 µM
  TGI: 8.32 µM
HCC-2998 colon
  GI50: 2.99 µM
  TGI: 11.9 µM
HCT-116 colon
  GI50: 1.98 µM
  TGI: 4.01 µM
HCT-15 colon
  GI50: 3.05 µM
  TGI: 11.5 µM
HL-60(TB) leukemia
  GI50: 2.39 µM
  TGI: 6.57 µM
HOP-62 NSCLC
  GI50: 3.3 µM
  TGI: 13.5 µM
HOP-92 NSCLC
  GI50: 1.66 µM
  TGI: 4.2 µM
HS 578T breast
  GI50: 3.1 µM
  TGI: 21.6 µM
HT29 colon
  GI50: 2.33 µM
  TGI: 5.85 µM
IGROV1 ovarian
  GI50: 5.33 µM
  TGI: 25 µM
K-562 leukemia
  GI50: 2.64 µM
  TGI: > 100 µM
KM12 colon
  GI50: 3.75 µM
  TGI: 23.5 µM
LOX IMVI melanoma
  GI50: 1.68 µM
  TGI: 3.33 µM
M14 melanoma
  GI50: 3.2 µM
  TGI: 11.3 µM
MALME-3M melanoma
  GI50: 2.06 µM
  TGI: 5.23 µM
MCF7 breast
  GI50: 2.4 µM
  TGI: 10 µM
MDA-MB-231 breast
  GI50: 2.76 µM
  TGI: 8.65 µM
MDA-MB-435
  GI50: 2.89 µM
  TGI: 8.95 µM
MOLT-4 leukemia
  GI50: 2.9 µM
  TGI: > 100 µM
NCI-H226 lung
  GI50: 2.78 µM
  TGI: 8.31 µM
NCI-H460 lung
  GI50: 3.12 µM
  TGI: 10.5 µM
NCI-H522 lung
  GI50: 1.81 µM
  TGI: 4.51 µM
NCI/ADR-RES ovarian
  GI50: 3.12 µM
  TGI: 14 µM
OVCAR-3 ovarian
  GI50: 3.15 µM
  TGI: 11.5 µM
OVCAR-4 ovarian
  GI50: 2.44 µM
  TGI: 6.78 µM
OVCAR-5 ovarian
  GI50: 4.21 µM
  TGI: 31 µM
OVCAR-8 ovarian
  GI50: 2.85 µM
  TGI: 9.3 µM
PC-3 prostate
  GI50: 2.5 µM
RPMI-8226 leukemia
  GI50: 2.87 µM
  TGI: > 100 µM
RXF 393 renal
  GI50: 2.31 µM
  TGI: 6.48 µM
SF-268 CNS
  GI50: 5.82 µM
  TGI: 48.6 µM
SF-295 CNS
  GI50: 2.28 µM
  TGI: 6.16 µM
SF-539 CNS
  GI50: 3.46 µM
  TGI: 11.9 µM
SK-MEL-2 melanoma
  GI50: 2.21 µM
  TGI: 5.75 µM
SK-MEL-28 melanoma
  GI50: 3.69 µM
  TGI: 14 µM
SK-MEL-5 melanoma
  GI50: 2.88 µM
  TGI: 8.81 µM
SK-OV-3 ovarian
  GI50: 2.13 µM
  TGI: 6.06 µM
SN12C renal
  GI50: 2.83 µM
  TGI: 8.44 µM
SNB-19 CNS
  GI50: 3.97 µM
  TGI: 77.3 µM
SNB-75 CNS
  GI50: 3.42 µM
  TGI: 18.9 µM
SR leukemia
  GI50: 2.74 µM
  TGI: > 100 µM
SW-620 colon
  GI50: 3.49 µM
  TGI: 15 µM
T-47D breast
  GI50: 2.29 µM
  TGI: 7.14 µM
TK-10 renal
  GI50: 3.43 µM
  TGI: 9.9 µM
U251 CNS
  GI50: 2 µM
  TGI: 4.39 µM
UACC-257 melanoma
  GI50: 2.36 µM
  TGI: 6.96 µM
UACC-62 melanoma
  GI50: 2.38 µM
  TGI: 7.4 µM
UO-31 renal
  GI50: 2.84 µM
  TGI: 12.6 µM

## CCCCCCNC(=O)Oc1ccc(/C(=C(\C)c2ccc(Cl)cc2)c2ccc(OCCN(C)C)cc2)cc1
786-0 renal
  GI50: 1.74 µM
  TGI: 3.27 µM
A498 renal
  GI50: 2.69 µM
  TGI: 12.1 µM
A549 NSCLC
  GI50: 1.63 µM
  TGI: 3.13 µM
ACHN renal
  GI50: 1.88 µM
  TGI: 3.77 µM
BT-549 breast
  GI50: 2.88 µM
  TGI: 9.2 µM
CAKI-1 renal
  GI50: 1.33 µM
  TGI: 2.65 µM
CCRF-CEM leukemia
  GI50: 1.89 µM
  TGI: 5.64 µM
COLO 205 colon
  GI50: 1.68 µM
  TGI: 3.1 µM
DU-145 prostate
  GI50: 2.02 µM
  TGI: 3.92 µM
EKVX NSCLC
  GI50: 3.83 µM
  TGI: 16.5 µM
HCC-2998 colon
  GI50: 2.06 µM
  TGI: 4.29 µM
HCT-116 colon
  GI50: 1.53 µM
  TGI: 3 µM
HCT-15 colon
  GI50: 1.72 µM
  TGI: 3.3 µM
HL-60(TB) leukemia
  GI50: 1.62 µM
  TGI: 4.3 µM
HOP-62 NSCLC
  GI50: 1.63 µM
  TGI: 3.18 µM
HOP-92 NSCLC
  GI50: 1.02 µM
  TGI: 2.22 µM
HS 578T breast
  GI50: 1.55 µM
  TGI: 3.53 µM
HT29 colon
  GI50: 1.71 µM
  TGI: 3.37 µM
IGROV1 ovarian
  GI50: 1.81 µM
  TGI: 3.57 µM
K-562 leukemia
  GI50: 1.66 µM
  TGI: 7.21 µM
KM12 colon
  GI50: 1.87 µM
  TGI: 3.61 µM
LOX IMVI melanoma
  GI50: 1.63 µM
  TGI: 2.99 µM
M14 melanoma
  GI50: 1.69 µM
  TGI: 3.19 µM
MALME-3M melanoma
  GI50: 1.72 µM
  TGI: 3.26 µM
MCF7 breast
  GI50: 0.216 µM
  TGI: 2.19 µM
MDA-MB-231 breast
  GI50: 1.77 µM
  TGI: 3.38 µM
MDA-MB-435
  GI50: 1.72 µM
  TGI: 3.24 µM
MOLT-4 leukemia
  GI50: 1.93 µM
  TGI: 5.27 µM
NCI-H226 lung
  GI50: 4.26 µM
  TGI: 18.1 µM
NCI-H23 lung
  GI50: 2.24 µM
  TGI: 5.71 µM
NCI-H460 lung
  GI50: 1.7 µM
  TGI: 3.12 µM
NCI-H522 lung
  GI50: 1.78 µM
  TGI: 3.42 µM
NCI/ADR-RES ovarian
  GI50: 3.12 µM
  TGI: 11.8 µM
OVCAR-4 ovarian
  GI50: 1.94 µM
  TGI: 4.65 µM
OVCAR-5 ovarian
  GI50: 4.26 µM
  TGI: 17.1 µM
OVCAR-8 ovarian
  GI50: 1.6 µM
  TGI: 3.1 µM
PC-3 prostate
  GI50: 1.44 µM
  TGI: 2.84 µM
RPMI-8226 leukemia
  GI50: 1.9 µM
  TGI: 4.3 µM
RXF 393 renal
  GI50: 1.33 µM
  TGI: 2.72 µM
SF-268 CNS
  GI50: 2.39 µM
  TGI: 7.63 µM
SF-295 CNS
  GI50: 1.75 µM
  TGI: 3.2 µM
SF-539 CNS
  GI50: 1.74 µM
  TGI: 3.12 µM
SK-MEL-2 melanoma
  GI50: 1.87 µM
  TGI: 3.8 µM
SK-MEL-28 melanoma
  GI50: 1.78 µM
  TGI: 3.26 µM
SK-MEL-5 melanoma
  GI50: 1.77 µM
  TGI: 3.25 µM
SK-OV-3 ovarian
  GI50: 2.22 µM
  TGI: 6.92 µM
SN12C renal
  GI50: 1.68 µM
  TGI: 3.22 µM
SNB-19 CNS
  GI50: 3.31 µM
  TGI: 12.4 µM
SNB-75 CNS
  GI50: 1.69 µM
  TGI: 7.12 µM
SR leukemia
  GI50: 1.68 µM
  TGI: 4.1 µM
SW-620 colon
  GI50: 1.6 µM
  TGI: 3.03 µM
T-47D breast
  GI50: 1.45 µM
  TGI: 4.12 µM
TK-10 renal
  GI50: 1.84 µM
  TGI: 4.08 µM
U251 CNS
  GI50: 1.59 µM
  TGI: 3.04 µM
UACC-257 melanoma
  GI50: 1.76 µM
  TGI: 3.28 µM
UACC-62 melanoma
  GI50: 1.72 µM
  TGI: 3.32 µM
UO-31 renal
  GI50: 1.31 µM
  TGI: 2.77 µM
